What is called IC50 is the concentration at which inhibition is half-maximal.

The assay has as its target T1, Human recombinant PTP-1B (Homo sapiens, UniProt P18031).
T1 construct: Human recombinant PTP-1B, containing amino acids 1-321, fused to GST enzyme; GST (glutathione S-transferase)
T1 sequence (P18031 1-321): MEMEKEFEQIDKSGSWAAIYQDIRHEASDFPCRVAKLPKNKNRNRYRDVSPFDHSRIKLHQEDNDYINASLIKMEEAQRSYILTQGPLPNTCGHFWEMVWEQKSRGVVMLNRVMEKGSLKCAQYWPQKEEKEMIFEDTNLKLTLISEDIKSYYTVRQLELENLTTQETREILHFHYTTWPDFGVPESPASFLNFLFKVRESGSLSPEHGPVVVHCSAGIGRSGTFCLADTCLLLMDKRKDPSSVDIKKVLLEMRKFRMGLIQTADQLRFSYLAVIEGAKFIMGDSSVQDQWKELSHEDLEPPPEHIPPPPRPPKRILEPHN
In words: Assay for PTP-1B Activity (pNPP substrate). The assay is classed as biochemical. The note with it: human recombinant PTP-1B (1-321) GST fusion, 2 mM pNPP, pH 7.4, 30° C., 20 min; read-out: Activity Code (IC50 range). An excerpt: The activity of the compounds as modulators of protein tyrosine phosphatase, including PTP-1B, may be measured in standard assays (see, e.g., Examples 41 and 42). Briefly, the assay described herein employs human recombinant PTP-1B and a pNPP substrate in a rescue assay.
Assay for PTP-1B Activity
Enzyme: Human recombinant PTP-1B, containing amino acids 1-321, fused to GST enzyme (glutathione S-transferase) purified by affinity chromatography (Huyer et al, 1997, J. Biol. Chem., 272, 843-852).
pNPP: p-Nitrophenyl Phosphate (Calbiochem)
Assay Buffer: 50 mM HEPES (pH 7.4), 100 mM NaCl, 2 mM EDTA, 3 mM DTT
(5×) pNPP substrate: 10 mM pNPP in assay buffer
Enzyme: 1 mg/ml PTP1B (1-321), dilute 1:200 in assay buffer
Assay buffer: 50 mM HEPES (pH 7.4), 100 mM NaCl, 2 mM EDTA, 3 mM DTT
Enzyme dilution buffer: 50 mM HEPES (pH 7.4), 100 mM NaCl, 2 mM EDTA, 3 mM DTT
Substrate 198 mM p-Nitrophenyl Phosphate (pNPP) store at 4° C.
The assay was carried out at 30° C. in 96 well plates. The reaction mixture in 60 ul contained 50 mM HEPES (pH 7.4), 100 mM NaCl, 2 mM EDTA, 3 mM DTT, and 2 mM p-Nitrophenyl Phosphate (pNPP). 5 ul of the test compound (inhibitor) dissolved in DMSO or DMSO alone for control was added to each well and the plate was mixed for 2 min. The reaction was initiated by adding 20 ul of diluted PTP1B (5 ng/ul in 50 mM HEPES (pH 7.4), 100 mM NaCl, 2 mM EDTA, 3 mM DTT). After 20 min at 30° C., the enzyme reaction was terminated by adding 100 ul of 2 M K2CO3 to each well. The phosphatase activity was detected by using Victor II plate reader (Wallac) with absorbance detection at 405 nm. All the assays were done at least in duplicate. The initial rate of pNP is plotted against the concentration of inhibitor.
On to `CC(C)(C)C(=O)OCOP(=O)(O)C(F)(F)c1ccc(Cn2c(-c3ccc(S(C)(=O)=O)cc3)cn(Cc3ccccc3)c2=O)cc1Br` [Compound 76, 2,2-Dimethyl-propionic acid ({4-[3-benzyl-5-(4-methanesulfonyl-phenyl)-2-oxo-2,3-dihydro-imidazol-1-ylmethyl]-2-bromo-phenyl}-difluoro-methyl)-hydroxy-phosphinoyloxymethyl ester], for which the IC50 was in the range of 250 to 2500 nM.

Regarding `CS(=O)(=O)c1ccc(-c2c[nH]c(=O)n2Cc2ccc(C(F)(F)P(=O)(O)O)c(Br)c2)cc1` [Compound 3, ({2-Bromo-4-[5-(4-methanesulfonyl-phenyl)-2-oxo-2,3-dihydro-imidazol-1-ylmethyl]-phenyl}-difluoro-methyl)-phosphonic acid], the IC50 lay in the range of 250 to 2500 nM.

For `COC(=O)c1ccc(Cn2cc(-c3ccccc3)n(Cc3ccc(C(F)(F)P(=O)(O)O)c(Br)c3)c2=O)cc1` [Compound 54, 4-{3-[3-Bromo-4-(difluoro-phosphono-methyl)-benzyl]-2-oxo-4-phenyl-2,3-dihydro-imidazol-1-ylmethyl}-benzoic acid methyl ester], the half-maximal inhibitory concentration (IC50) lay within 100 to 249 nM.

`COC(=O)c1ccc(-c2cn(Cc3ccccc3)c(=O)n2Cc2ccc(C(F)(F)P(=O)(O)O)c(Cl)c2)cc1` [Compound 10, 4-{1-Benzyl-3-[3-chloro-4-(difluoro-phosphono-methyl)-benzyl]-2-oxo-2,3-dihydro-1H-imidazol-4-yl}-benzoic acid methyl ester]: the half-inhibitory concentration (IC50) was in the range of 250 to 2500 nM.

As for `COC(=O)c1ccc(-c2cn(CCc3ccccc3)c(=O)n2Cc2ccc(C(F)(F)P(=O)(O)O)c(Br)c2)cc1` [Compound 12, 4-{3-[3-Bromo-4-(difluoro-phosphono-methyl)-benzyl]-2-oxo-1-phenethyl-2,3-dihydro-1H-imidazol-4-yl}-benzoic acid methyl ester], the 50% inhibitory concentration (IC50) was 250 to 2500 nM.

With `CCn1cc(-c2ccc(C(=O)OC)cc2)n(Cc2ccc(C(F)(F)P(=O)(O)O)c(Br)c2)c1=O` [Compound 47, 4-{3-[3-Bromo-4-(difluoro-phosphono-methyl)-benzyl]-1-ethyl-2-oxo-2,3-dihydro-1H-imidazol-4-yl}-benzoic acid methyl ester], the 50% inhibitory concentration (IC50) lay within 100 to 249 nM.

As to `CC(C)(C)C(=O)OCOC(=O)c1ccc(-c2cn(Cc3ccccc3)c(=O)n2Cc2ccc(C(F)(F)P(=O)(O)OCOC(=O)C(C)(C)C)c(Br)c2)cc1` [Compound 53, 4-[1-Benzyl-3-(3-bromo-4-{[(2,2-dimethyl-propionyloxy-methoxy)-hydroxy-phosphoryl]-difluoro-methyl}-benzyl)-2-oxo-2,3-dihydro-1H-imidazol-4-yl]-benzoic acid 2,2-dimethyl-propionyloxymethyl ester], the IC50 was 2500 to 25000 nM.

Turning to `O=C(O)c1cccc(-c2cn(C3CC3)c(=O)n2Cc2ccc(C(F)(F)P(=O)(O)O)c(Br)c2)c1` [Compound 63, 3-{3-[3-Bromo-4-(difluoro-phosphono-methyl)-benzyl]-1-cyclopropyl-2-oxo-2,3-dihydro-1H-imidazol-4-yl}-benzoic acid], the 50% inhibitory concentration (IC50) was in the range of 250 to 2500 nM.

Regarding `CCOC(=O)n1cc(-c2ccc(S(C)(=O)=O)cc2)n(Cc2ccc(C(F)(F)P(=O)(O)O)c(Br)c2)c1=O` [Compound 1, 3-[3-Bromo-4-(difluoro-phosphono-methyl)-benzyl]-4-(4-methanesulfonyl-phenyl)-2-oxo-2,3-dihydro-imidazole-1-carboxylic acid ethyl ester], the IC50 was in the range of 100 to 249 nM.

Take `Cn1cc(-c2ccc(S(C)(=O)=O)cc2)n(Cc2ccc(C(F)(F)P(=O)(O)O)c(Br)c2)c1=O` [Compound 4, ({2-Bromo-4-[5-(4-methanesulfonyl-phenyl)-3-methyl-2-oxo-2,3-dihydro-imidazol-1-ylmethyl]-phenyl}-difluoro-methyl)-phosphonic acid]: the IC50 lay within 100 to 249 nM.

In the case of `COC(=O)c1cccc(-c2cn(C3CC3)c(=O)n2Cc2ccc(C(F)(F)P(=O)(O)O)c(Br)c2)c1` [Compound 62, 3-{3-[3-Bromo-4-(difluoro-phosphono-methyl)-benzyl]-1-cyclopropyl-2-oxo-2,3-dihydro-1H-imidazol-4-yl}-benzoic acid methyl ester], the half-inhibitory concentration (IC50) was 250 to 2500 nM.

`COC(=O)c1ccc(-c2cn(Cc3cc(OC)cc(OC)c3)c(=O)n2Cc2ccc(C(F)(F)P(=O)(O)O)c(Br)c2)cc1` [Compound 23, 4-[3-[3-Bromo-4-(difluoro-phosphono-methyl)-benzyl]-1-(3,5-dimethoxy-benzyl)-2-oxo-2,3-dihydro-1H-imidazol-4-yl]-benzoic acid methyl ester]: the IC50 is less than 99 nM.

For `COC(=O)c1ccc(-c2cn(C3CC3)c(=O)n2Cc2ccc(C(F)(F)P(=O)(O)O)c(Br)c2)cc1` [Compound 24, 4-{3-[3-Bromo-4-(difluoro-phosphono-methyl)-benzyl]-1-cyclopropyl-2-oxo-2,3-dihydro-1H-imidazol-4-yl}-benzoic acid methyl ester], the concentration for half-maximal inhibition (IC50) was 100 to 249 nM.

As for `O=c1n(Cc2ccccc2)ccn1Cc1ccc(C(F)(F)P(=O)(O)O)c(Br)c1` [Compound 71, {[4-(3-Benzyl-2-oxo-2,3-dihydro-imidazol-1-ylmethyl)-2-bromo-phenyl]-difluoro-methyl}-phosphonic acid], the IC50 lay within 2500 to 25000 nM.

Turning to `O=c1n(Cc2ccc(C(F)(F)P(=O)(O)O)c(Br)c2)ccn1Cc1ccc(C(F)(F)P(=O)(O)O)c(Br)c1` [Compound 88, [(2-Bromo-4-{3-[3-bromo-4-(difluoro-phosphono-methyl)-benzyl]-2-oxo-2,3-dihydro-imidazol-1-ylmethyl}-phenyl)-difluoro-methyl]-phosphonic acid], the IC50 is less than 99 nM.

Take `NC(=O)c1ccc(-c2cn(Cc3ccccc3)c(=O)n2Cc2ccc(C(F)(F)P(=O)(O)O)c(Br)c2)cc1` [Compound 27, ({4-[3-Benzyl-5-(4-carbamoyl-phenyl)-2-oxo-2,3-dihydro-imidazol-1-ylmethyl]-2-bromo-phenyl}-difluoro-methyl)-phosphonic acid]: the half-inhibitory concentration (IC50) lay in the range of 100 to 249 nM.

Take `O=C1N(Cc2ccccc2)CCN1Cc1ccc(C(F)(F)P(=O)(O)O)c(Br)c1` [Compound 89, {[4-(3-Benzyl-2-oxo-imidazolidin-1-ylmethyl)-2-bromo-phenyl]-difluoro-methyl}-phosphonic acid]: the IC50 fell in the range of 250 to 2500 nM.

`CS(=O)(=O)c1ccc(Cn2cc(-c3ccccc3)n(Cc3ccc(C(F)(F)P(=O)(O)O)c(Br)c3)c2=O)cc1` [Compound 58, ({2-Bromo-4-[3-(4-methanesulfonyl-benzyl)-2-oxo-5-phenyl-2,3-dihydro-imidazol-1-ylmethyl]-phenyl}-difluoro-methyl)-phosphonic acid]: the IC50 was in the range of 250 to 2500 nM.

In the case of `N#Cc1ccc(-c2cn(Cc3ccccc3)c(=O)n2Cc2ccc(C(F)(F)P(=O)(O)O)c(Br)c2)cc1` [Compound 20, ({4-[3-Benzyl-5-(4-cyano-phenyl)-2-oxo-2,3-dihydro-imidazol-1-ylmethyl]-2-bromo-phenyl}-difluoro-methyl)-phosphonic acid], the 50% inhibitory concentration (IC50) is 100 to 249 nM.

On to `O=c1n(Cc2ccccc2)cc(-c2ccc(Cl)cc2)n1Cc1ccc(C(F)(F)P(=O)(O)O)c(Br)c1` [Compound 26, ({4-[3-Benzyl-5-(4-chloro-phenyl)-2-oxo-2,3-dihydro-imidazol-1-ylmethyl]-2-bromo-phenyl}-difluoro-methyl)-phosphonic acid], for which the concentration for half-maximal inhibition (IC50) lay in the range of 100 to 249 nM.

The record behind these values is patent US20080070867A1, “2-Imidazolone and 2-Imidazolidinone Heterocyclic Inhibitors of Tyrosine Phosphatases” (Metabasis Therapeutics, Inc., priority 2005, published 2008).
